“Also recorded” adds a separate entry of the source.

Data set [1] deals with small vessel growth of CAM model. The experiment in a line: Effect of LQC-Y on tumor angiogenesis using CAM method (small vessel count). The format is in vivo, chicken. The settings on record: compared with the blank group. Here is the method:
Aseptic gelatin sponge, which was made into a wafer having a diameter of 5 mm by a hole-puncher in advance, was used as sample carrier. The prepared derivatives of bromotetramethylpyrazine series were added thereinto in an aseptic environment and different dosage groups were set according to the difference of the molecular weight of each medicine, including 10 μg/chicken embryo, 20 μg/chicken embryo and 40 μg/chicken embryo. The 0.9% physiological saline was used in a blank group. The samples were air-dried in an aseptic environment.
A hatching egg after disinfection was put into a 37° C. incubation box with air sac upward until the seventh day of incubation. The egg embryo was disinfected using alcohol at a super clean bench, and then a small hole was drilled at the top of the egg embryo using a dental drill, and the nearby egg shell and shell membrane were removed carefully to form a opening with the size of about 1.2 cm×1.2 cm. […]
After the incubation, the transparent tape blocking the chicken embryo air sac was softly removed with a nipper. […] The effect of the compounds on angiogenesis was evaluated by the count analytic method using the numbers of great vessels, medium vessels and small vessels arranged radially around the carrier. […]

The test system of data set [2] is Human hepatoma carcinoma cells Bel7402. The experiment in a line: Proliferation of human hepatoma carcinoma cells Bel7402 by MTT. It counts as cell-based. Particulars: 40 μg/ml.
For data set [3] the test system is unchanged. Described as above. The format is cell-based. The settings on record: for 24 h inhibition ratio (%): Bel7402 cells; for inhibiting effect on the proliferation of Bel7402 cells: cultured in vitro, 10-40 μg/ml. The protocol:
Human hepatoma carcinoma cells Bel7402 were recovered and subcultured using a culture flask. The preparation of the experiment was started when the cell growth entered into the exponential growth phase. The cells were then digested using pancreatic enzyme which had been filtrated at an increased pressure to prepare the cell suspension. After that the suspension was dyed for 3 min with 0.4% trypan blue. Then a blood cell counting plate was used to count the living cells which were not dyed and the dead cells which were dyed to blue. The number of the living cells identified by trypan blue was more than 98%.
Three kinds of cells which were in the exponential growth phase were inoculated at the density of 1×10^4/ml, to a 96-well plate, 200 μl for each well. Then the plate was put in a 37° C. 5% CO2 incubation box to be cultured for 24 h. The cultivation liquid was sucked away and 200 μl LQC-Y solutions of different concentrations were added thereinto (prepared with DMEM cultivation liquid containing 4% calf serum and the final concentration of which respectively were 10 μg, 20 μg, 40 μg), 4 parallel wells for each concentration. Supernatant cultivation liquid 100 μl was sucked away carefully from each well after being cultured for 24 h and 48 h, and MTS 20 μl was added into each well and homogeneously mixed. The resultant liquid was cultured in a 37° C. 5% CO2 incubation box for a further 1 h. An enzyme-labeling quantitative instrument was used to measure the absorbance at 492 nm. The experiment was repeated for 3 times and then an inhibition ratio was calculated.
The inhibition ratio of cell proliferation (%)=[(average OD value of control group-average OD value of the administration group)/average OD value of control group]×100%

Data set [4] concerns S180 sarcoma of mice. The experiment in a line: Tumor inhibiting effect of LQC-Y3 on tumor bearing S180 mice. The protocol:
The S180 mice that had been inoculated for 7 days were killed by breaking the neck thereof and ascites was taken from the mice respectively in an aseptic environment and the ascites was washed using RPMI1640 culture medium for 2 times and then made into a 2×10^7/ml cell suspension using aseptic physiological saline. Then the obtained S180 cell suspension was inoculated hypodermically at the right axillary of mice, 0.1 ml for each mouse and 50 mice total, to establish the solid tumor model.
60 mice were divided into 2 categories, including 6 groups, according to the random number table method, i.e. normal control group of the first category, and S180 solid tumor groups of the second category which included positive (cyclophosphamide) control group, negative control group, small dosage group, middle dosage group and large dosage group, 10 mice for each group. The experiment was repeated for 3 times.
LQC-Y3 was prepared using 0.5% CMC-Na. The dosage of the small dosage group was 75 mg/Kg, the dosage of the middle dosage group was 150 mg/Kg, and the dosage of the large dosage group was 300 mg/kg. Equal volume of 0.5% CMC-Na was injected into the mice of the negative control group and cyclophosphamide injection 0.02 g/(Kg.d) was injected into the mice of the positive control group. These medicines were administrated 0.1 ml per mouse by intraperitoneal injection every the other day continuously for 15 days. During this period, the common behavior, hair, excrement and so on were observed daily. The mice that had been inoculated with S180 by hypodermic inoculation were killed by breaking the neck thereof after 24 h after the last administration and the tumor, liver and spleen were then taken.
The weight of the solid tumor group mice were measured after all the administration was finished and then the mice were killed. The spleens and the livers thereof were weighed by an electronic balance. The spleen index was calculated as the spleen weight of a mouse (mg)/the body weight of a mouse (g) and the liver index was calculated as the liver weight of a mouse […]/the body weight of a mouse (g).
The solid tumor negative control group mice were weighed on the next day after the administration was finished (the eyeballs of the mice were removed to bleed and the serum was collected for subsequent experimental use). Then the mice were killed by breaking the neck thereof. The tumor tissues were taken out and weighed by an electronic balance to calculate the tumor inhibiting ratio.
All the data were statistically analyzed using SPSS11.0 software pack. The comparison of the enumeration data was carried out with X^2 test. P<0.05 had statistical significance.

The test system of data set [5] is ICR white mice. The experiment in a line: Acute toxic experiment of mice by oral administration. The format is in vivo. The arrangement: key to Animal reaction in 14 days after the administration: Appearance / Animal reaction in 14 days after the administration: Behavior / Animal reaction in 14 days after the administration: Hair / Animal reaction in 14 days after the administration: Respiration / Animal reaction in 14 days after the administration: Posture / Animal reaction in 14 days after the administration: Reaction: ✓ means normal. The settings on record: for Animal reaction in 14 days after the administration: Death: 10 animals; for Animal reaction in 14 days after the administration: Death / Animal reaction in 14 days after the administration: Appearance / Animal reaction in 14 days after the administration: Behavior / Animal reaction in 14 days after the administration: Hair / Animal reaction in 14 days after the administration: Posture / Animal reaction in 14 days after the administration: Reaction / Animal reaction in 14 days after the administration: Respiration: oral 3 x 2000 mg/kg (6000 mg/kg) in one day. The protocol: 1. Experimental Project: Acute Toxic Experiment of Mice by Oral Administration
ICR white mice (half female and half male, 18-22 g, experiment animal certificate No.: SCXK (Jing) 2006-0009);
LQC-Y3 (white powder (self prepared); and LQC-Y3 5000 mg was dissolved into 0.5% sodium carboxymethyl cellulose 100 ml and then suspended by supersonic wave. The suspension was used in situ).
The qualified animals were quarantined and weighed before the administration. Then the animals were divided into groups randomly by weight. The intragastric administration tool for mice was used to carry out the intragastric administration. The mice were fasted but not water-deprived (continuously for 14 h) overnight before being administrated. The mice were administrated at 9:00 AM for the first time (2000 mg/kg) on the present administration day and observed continuously for 1 h. The mice were administrated for the second time (2000 mg/kg) at an interval of 6 h since the first administration and observed continuously for 1 h. The mice were administrated for the third time (2000 mg/kg) at an interval of 6 h since the second administration, observed continuously for 1 h and then the mice were fed.

[6] abbreviates: S180 Balb/C mice, large dosage 300 mg/kg i.p. every other day, 15 days.
Setting [7] is: S180 Balb/C mice, middle dosage 150 mg/Kg i.p. every other day, 15 days.
The mark [8] stands for this setting: S180 Balb/C mice, small dosage 75 mg/Kg i.p. every other day, 15 days.

As for `COc1cc(/C=C/C(=O)CC(=O)/C=C/c2ccc(OCc3nc(C)c(C)nc3C)c(OC)c2)ccc1OCc1nc(C)c(C)nc1C` [LQC-Y8, (1E,6E)-1,7-bis(3-methoxy-4-((3,5,6-trimethylpyrazine-2-yl)methoxy)phenyl)heptyl-1,6-diene-3,5-diketone], the “vessel growth inhibiting effect” value in data set [1] was “significant inhibiting effect; also recorded: magnificent inhibiting effect”. For the same molecule, the “24 h inhibition ratio (%)” value in data set [2] came out at 54.07%; in data set [3] (10 μg/ml), 39.31%; in data set [3] (20 μg/ml), 44.58%. Besides, the “inhibiting effect on the proliferation of Bel7402 cells” value in data set [3] is listed as “evident inhibiting effect”.

Regarding `Cc1nc(C)c(COC(=O)C23CCC(C)(C)CC2C2=CCC4C5(C)CCC(O)C(C)(C)C5CCC4(C)C2(C)CC3)nc1C` (centres unmarked) [LQC-Y3, (3,5,6-trimethyl pyrazine-2-yl)methyl-10-hydroxy-2,2,6a,6b,9,9,12a-heptamethyl-1,2,3,4,4a,5,6,6a,6b,7,8,8a,9,10,11,12,12a,12b,13,14b-eicosahydropicene-4a-carboxylate], in data set [4] (75-300 mg/kg i.p.), the “effect on the growth of the S180 mice sarcoma” value is given as “can Notably Inhibit the Growth; also recorded: inhibit the growth of S180 tumor effectively”. In data set [4] (setting [6]), the “Tumor inhibiting ratio (%)” value amounted to 50.0% and the “Tumor weight (g)” value was 0.47 ± 0.23^(3) g. Also, in data set [4] (setting [7]), the “Tumor inhibiting ratio (%)” value stood at 37.23% and the “Tumor weight” value is on record as 0.59 ± 0.28 g. Further, in data set [4] (setting [8]), the “Tumor inhibiting ratio (%)” value worked out at 33.98% and the “Tumor weight” value is 0.63 ± 0.30 g. Moreover, the “effect on the growth of the S180 sarcoma mice's weight” value in data set [4] (mouse, in vivo) is recorded as “no effect”. In addition, the “24 h inhibition ratio (%)” value in data set [2] worked out at 99.16%. In addition, the “24 h inhibition ratio (%)” value in data set [3] (10 μg/ml) is given as 34.53%. The “24 h inhibition ratio (%)” value in data set [3] (20 μg/ml) was determined as 89.07%. Moreover, the “inhibiting effect on the proliferation of Bel7402 cells” value in data set [3] is “evident inhibiting effect”. For the same molecule, the “toxic reaction” value in data set [5] (mice, maximum dosage of 6000 mg/kg per day, oral, observed continuously for 14 days, 6000 mg/kg/day) is on record as “No toxic reaction; also recorded: no toxic or side effect”. Moreover, in data set [5] (♀ ICR mice), the “Animal reaction in 14 days after the administration: Death” value came out at 0, the “Animal reaction in 14 days after the administration: Appearance” value is reported as “✓”, the “Animal reaction in 14 days after the administration: Behavior” value is “✓” and the “Animal reaction in 14 days after the administration: Hair” value is listed as “✓”. Besides, in data set [5] (♀ ICR mice), the “Animal reaction in 14 days after the administration: Posture” value was “✓”, the “Animal reaction in 14 days after the administration: Reaction” value is “✓” and the “Animal reaction in 14 days after the administration: Respiration” value is reported as “✓”. Further, in data set [5] (♂ ICR mice), the “Animal reaction in 14 days after the administration: Death” value amounted to 0, the “Animal reaction in 14 days after the administration: Appearance” value is given as “✓”, the “Animal reaction in 14 days after the administration: Behavior” value was “✓” and the “Animal reaction in 14 days after the administration: Hair” value is recorded as “✓”. In data set [5] (♂ ICR mice), the “Animal reaction in 14 days after the administration: Posture” value is “✓”, the “Animal reaction in 14 days after the administration: Reaction” value is recorded as “✓” and the “Animal reaction in 14 days after the administration: Respiration” value was “✓”.

Values taken from patent US9321804B2, “Synthesis and use of anti-tumor drug LQC-Y” (Beijing University of Chinese Medicine, priority 2011, dated 2016).
